Experimental data taken from US12391660B2, “Heteroaromatic acetamide derivative, and preparation and use thereof” (Hangzhou Westan Pharmaceutical Technology Co., Ltd, priority 2019, dated 2025).

Biological target: human TRPA1 (Homo sapiens (Human), UniProt O75762)
Experiment: FLIPR assay of inhibitory activity on human TRPA1 (calcium ion flux fluorescence)
Type: cell-based
Details: HEK293 cells stably expressing human TRPA1
Description: 1. FLIPR Assay of Inhibitory Activity on Human TRPA1
A calcium ion flux fluorescence method (FLIPR assay) was adopted to measure the inhibitory activity of compounds on human TRPA1 channel. The literature reports of Lee and Chen et al. may be referred to for the method [Lee et al. Br J Pharmacol 2008, 153 (8): 1739-1749] [Chen et al. Pain 2011, 152(5):1165-72].
A HEK293 recombinant cell strain stably expressing human TRPA1 (Creative Biogene, NY) was cultured in DMEM (Thermo Fisher Scientific, Shanghai) medium (containing 10% calf serum, 5 μg/ml Blasticidin and 400 ug/ml G418). The incubator was under a condition of 37° C. and air humidity with 5% CO2.
TRPA1 cells were seeded in a 96-well analysis plate at a density of 75,000 cells per well (100 ul/well), and cultured overnight in an incubator at 37° C. and 5% CO2. On the second day, incubation was continued overnight under the same condition to induce the expression of TRPA1 after the culture medium in each well was poured out and a fresh supplement with the same culture medium containing 0.1 μg/ml Tetracycline was added. The further next day, the culture medium was pour out, a DMEM culture solution (also containing 2.5 mM Probenicid) containing 5 μM Fluo-4 AM (Molecular Probes) was added to each well, and incubation was conducted at 37° C. for 1 hour.
The compound was dissolved in 100% DMSO to prepare a 30 mM stock solution which was stored at −20° C. On the day of use, the compound stock solution was thawed at room temperature. Each compound was subjected to 1:5 serial dilution using DMSO medium at a starting concentration of 30 μM with 9 concentration points on a 96-well plate. Each compound was diluted in duplicate for testing. Ruthenium Red was used as the positive control compound and the same dilution was carried out at a starting concentration of 3 μM.
The cell analysis plate was placed in an FLIPR instrument […], and the compound in the compound plate was added to the corresponding hole on the cell analysis plate (First addition) via an automatic program, and the calcium ion fluorescence signal was recorded to determine whether the compound had agonistic activity. After 10 minutes, CaCl2 (Second addition) was added a final concentration of 3 mM to each well to stimulate intracellular calcium flux signals. Ca^++-dependent fluorescence signal was monitored continuously at 538 nm wavelength to analyze the inhibitory activity of the compounds.
The data was collected and analyzed using a FLIPR program. The fluorescence peak value was used to evaluate the inhibitory (or agonistic) activity of the compounds at each concentration. EXCEL and PRISM programs were used to calculate the IC50 value of the compounds.

Chain of human TRPA1 (O75762 whole entry): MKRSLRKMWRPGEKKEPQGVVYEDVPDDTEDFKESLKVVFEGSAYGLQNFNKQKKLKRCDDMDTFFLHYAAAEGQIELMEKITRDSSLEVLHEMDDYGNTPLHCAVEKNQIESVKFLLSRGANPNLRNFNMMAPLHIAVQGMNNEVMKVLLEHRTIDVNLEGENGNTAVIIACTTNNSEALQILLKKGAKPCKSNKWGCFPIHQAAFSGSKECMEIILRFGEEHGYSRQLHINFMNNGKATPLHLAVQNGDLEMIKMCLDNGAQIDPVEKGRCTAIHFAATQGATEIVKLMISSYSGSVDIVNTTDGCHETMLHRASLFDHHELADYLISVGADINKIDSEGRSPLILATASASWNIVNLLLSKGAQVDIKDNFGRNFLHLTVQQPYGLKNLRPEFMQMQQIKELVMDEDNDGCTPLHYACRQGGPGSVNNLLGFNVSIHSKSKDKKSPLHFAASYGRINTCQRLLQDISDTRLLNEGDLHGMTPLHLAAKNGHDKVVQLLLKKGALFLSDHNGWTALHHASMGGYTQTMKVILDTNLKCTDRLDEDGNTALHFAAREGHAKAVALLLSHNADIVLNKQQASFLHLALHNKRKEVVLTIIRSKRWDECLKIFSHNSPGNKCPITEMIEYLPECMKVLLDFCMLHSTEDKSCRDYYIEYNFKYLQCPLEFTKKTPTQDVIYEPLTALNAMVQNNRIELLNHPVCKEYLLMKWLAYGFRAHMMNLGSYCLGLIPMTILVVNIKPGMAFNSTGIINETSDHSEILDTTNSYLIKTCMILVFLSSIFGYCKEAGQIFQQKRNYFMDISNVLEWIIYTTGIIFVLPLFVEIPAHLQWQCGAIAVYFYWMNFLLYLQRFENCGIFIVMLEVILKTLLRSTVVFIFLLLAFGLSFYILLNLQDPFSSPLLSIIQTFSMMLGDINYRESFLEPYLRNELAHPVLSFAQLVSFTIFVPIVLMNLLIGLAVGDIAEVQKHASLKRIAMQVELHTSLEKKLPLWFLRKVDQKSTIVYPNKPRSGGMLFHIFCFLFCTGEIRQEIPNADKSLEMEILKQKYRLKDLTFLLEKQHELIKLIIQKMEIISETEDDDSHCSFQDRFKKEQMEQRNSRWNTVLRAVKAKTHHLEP

## 4-((3-(4-(3-trifluoromethyl) phenyl)piperazine-1-carbonyl) propane-2-yl)amino)benzo- nitrile [Compound 9]
  IC50: 5670 nM

## N#Cc1ccc(NC2(C(=O)N3CCN(c4cccc(C(F)(F)F)c4)CC3)CCCC2)cc1 [Compound 2, 4-((1-(4-(3-(trifluoromethyl)phenyl)piperazine-1-carbonyl)cyclopentyl)amino)benzo-nitrile]
  IC50: 105 nM

## N#Cc1ccc(NC2(C(=O)N3CCN(c4ccccc4C(F)(F)F)CC3)CCCC2)cc1 [Compound 3, 4-((1-(4-(2-(trifluoromethyl)phenyl)piperazine-1-carbonyl)cyclopentyl)amino)benzo-nitrile]
  IC50: 1580 nM

## N#Cc1ccc(NC2(C(=O)N3CCN(c4ccccc4OC(F)(F)F)CC3)CCCC2)cc1 [Compound 4, 4-((1-(4-(2-(trifluoromethoxy)phenyl)piperazine-1-carbonyl)cyclopentyl)amino)benzo-nitrile]
  IC50: 152 nM

## N#Cc1ccc(NC2(C(=O)N3CCN(c4ccc(OC(F)(F)F)cc4)CC3)CCCC2)cc1 [Compound 5]
  IC50: 129 nM

## COc1cc(Cl)ccc1N1CCN(C(=O)C2(Nc3ccc(C#N)cc3)CCCC2)CC1 [Compound 6, 4-((1-(4-(4-chloro-2-methoxyphenyl)piperazine-1-carbonyl)cyclopentyl)amino)benzo-nitrile]
  IC50: 35 nM

## Cc1cccc(N2CCN(C(=O)C3(Nc4ccc(C#N)cc4)CCCC3)CC2)c1 [Compound 7]
  IC50: 64 nM

## CCC(CC)(Nc1ccc(C#N)cc1)C(=O)N1CCN(c2cccc(C(F)(F)F)c2)CC1 [Compound 8]
  IC50: 568 nM

## N#Cc1ccc(NC2(C(=O)N3CCN(c4ccc(C(F)(F)F)cn4)CC3)CCCC2)cc1 [Compound 10, 4-((1-(4-(5-(trifluoromethyl)pyridin-2-yl)piperazine-1-carbonyl)cyclopentyl)amino)benzonitrile]
  IC50: 32 nM

## N#Cc1ccc(NC2(C(=O)N3CCN(c4cccc(C(F)(F)F)n4)CC3)CC2)cc1 [Compound 12, 4-((1-(4-(6-(trifluoromethyl)pyridin-2-yl)piperazine-1-carbonyl)cyclopropyl)amino)ben zonitrile]
  IC50: 6230 nM

## N#Cc1ccc(NC2(C(=O)N3CCN(c4cccc(C(F)(F)F)n4)CC3)CCC2)cc1 [Compound 13, 4-((1-(4-(6-(trifluoromethyl)pyridin-2-yl)piperazine-1-carbonyl)cyclobutyl)amino)benzo nitrile]
  IC50: 378 nM

## CC(C)(C)C(Nc1ccc(C#N)cc1)C(=O)N1CCN(c2cccc(C(F)(F)F)n2)CC1 (centres unmarked) [Compound 14]
  IC50: 87 nM

## Cc1cccc(N2CCN(C(=O)C3(Nc4ccc(C#N)cc4)CCCC3)CC2)n1 [Compound 15, 4-((1-(4-(6-methylpyridin-2-yl)piperazine-1-carbonyl)cyclopentyl)amino)benzonitrile]
  IC50: 23 nM

## CN(C)C(=O)c1ccc(N2CCN(C(=O)C3(Nc4ccc(C#N)cc4)CCCC3)CC2)nc1 [Compound 16, 6-(4-(1-((4-cyano-phenyl)amino)cyclopentane-1-carbonyl)piperazine-1-yl)N, N-dimethylnicotinamide]
  IC50: 8920 nM

## N#Cc1ccc(NC2(C(=O)N3CCN(c4ncc(C(F)(F)F)cn4)CC3)CCCC2)cc1 [Compound 17, 4-((1-(4-(5-(trifluoromethyl)pyrimidin-2-yl)piperazine-1-carbonyl)cyclopentyl)amino)ben zonitrile]
  IC50: 18 nM

## N#Cc1ccc(NC2(C(=O)N3CCN(c4nccc(C(F)(F)F)n4)CC3)CCCC2)cc1 [Compound 18, 4-((1-(4-(4-(trifluoromethyl)pyrimidin-2-yl)piperazine-1-carbonyl)cyclopentyl)amino) benzonitrile]
  IC50: 38 nM

## N#Cc1ccc(NC2(C(=O)N3CCN(c4ccc(C(F)(F)F)nn4)CC3)CCCC2)cc1 [Compound 19, 4-((1-(4-(6-(trifluoromethyl)pyridazin-3-yl)piperazine-1-carbonyl)cyclopentyl)amino) benzonitrile]
  IC50: 87 nM

## N#Cc1ccc(NC2(C(=O)N3CCN(c4ccc(C(F)(F)F)nn4)CC3)CCCC2)cc1Cl [Compound 22, 2-chloro-4-((1-(4-(6-(trifluoromethyl)pyridazin-3-yl)piperazine-1-carbonyl)cyclopentyl)amino)benzonitrile]
  IC50: 765 nM

## N#Cc1ccc(NC2(C(=O)N3CCN(c4ccc(C(F)(F)F)s4)CC3)CCCC2)cc1 [Compound 24, 4-((1-(4-(5-(trifluoromethyl)thien-2-yl)piperazine-1-carbonyl)cyclopentyl)amino)benzonitrile]
  IC50: 576 nM

## N#Cc1ccc(NC2(C(=O)N3CCN(c4ncc(C(F)(F)F)s4)CC3)CCCC2)cc1 [Compound 25, 4-((1-(4-(5-(trifluoromethyl)thiazol-2-yl)piperazine-1-carbonyl)cyclopentyl)amino)benzonitrile]
  IC50: 876 nM

## Cn1ccc(N2CCN(C(=O)C3(Nc4ccc(C#N)cc4)CCCC3)CC2)n1 [Compound 26, 4-((1-(4-(1-methyl-1H-pyrazol-3-yl)piperazine-1-carbonyl)cyclopentyl)amino)benzonitrile]
  IC50: 2830 nM

## C#Cc1ccc(NC2(C(=O)N3CCN(c4cccc(C(F)(F)F)n4)CC3)CCCC2)cc1 [Compound 27, 4-((1-(4-(6-(trifluoromethyl)pyridin-2-yl)piperazine-1-carbonyl)cyclopentyl)amino)phenylacetylene]
  IC50: 567 nM

## N#Cc1ccc(NC2(C(=O)N3C[C@H]4CC[C@@H](C3)N4c3cccc(C(F)(F)F)n3)CCCC2)cc1 [Compound 28, 4-((1-(8-(6-(trifluoromethyl)pyridin-2-yl)-3,8-diazabicyclo[3.2.1]octane-3-carbonyl)cyclopentyl)amino)benzonitrile]
  IC50: 15 nM

## N#Cc1ccc(NC2(C(=O)N3CC4CCC3CN4c3cccc(C(F)(F)F)n3)CCCC2)cc1 (centres unmarked) [Compound 29, 4-((1-(5-(6-(trifluoromethyl)pyridin-2-yl)-2,5-diazabicyclo[2.2.2]octane-2-carbonyl)cyclopentyl)amino)benzonitrile]
  IC50: 26 nM

## N#Cc1ccc(NC2(C(=O)N3CCN(CC4CCCC4)CC3)CCCC2)cc1 [Compound 30, 4-((1-(4-(cyclopentanemethyl)piperazine-1-carbonyl)cyclopentyl)amino)benzonitrile]
  IC50: 54 nM

## CC(C)CC1CCN(C(=O)C2(Nc3ccc(C#N)cc3)CCCC2)CC1 [Compound 32, 4-((1-(4-(isobutyl)piperidine-1-carbonyl)cyclopentyl)amino)benzonitrile]
  IC50: 543 nM

## N#Cc1ccc(NC2(C(=O)N3CCC(C4CCCC4)CC3)CCCC2)cc1 [Compound 33, 4-((1-(4-(cyclopentyl)piperidine-1-carbonyl)cyclopentyl)amino)benzonitrile]
  IC50: 92 nM

## N#Cc1ccc(NC2(C(=O)N3CCC4(CCCC4)CC3)CCCC2)cc1 [Compound 34, 4-((1-(8-aza-spiro[4.5]decane-8-carbonyl)cyclopentyl)amino)benzonitrile]
  IC50: 287 nM

## N#Cc1ccc(NC2(C(=O)N3CCC(C4CCCCC4)CC3)CCCC2)cc1 [Compound 35, 4-((1-(4-(cyclohexyl)piperidine-1-carbonyl)cyclopentyl)amino)benzonitrile]
  IC50: 85 nM

## C#Cc1ccc(NC2(C(=O)N3CCC(C(C)(C)C)CC3)CCCC2)cc1 [Compound 36, 4-((1-(4-(tert-butyl)piperidine-1-carbonyl)cyclopentyl)amino)phenylacetylene]
  IC50: 1250 nM

## CC(C)(C)C1CCN(C(=O)C2(Nc3ccc(C#N)cc3)CCC2)CC1 [Compound 37, 4-((1-(4-(tert-butyl)piperidine-1-carbonyl)cyclobutyl)amino) benzonitrile]
  IC50: 5210 nM

## CC(C)(C)C1CCN(C(=O)C2(Nc3ccc(C#N)cc3)CC2)CC1 [Compound 38, 4-((1-(4-(tert-butyl)piperidine-1-carbonyl)cyclopropyl)amino)benzonitrile]
  IC50: 10200 nM

## CC(C)(C)C1CCN(C(=O)C2(Nc3nc(C#N)cs3)CCCC2)CC1 [Compound 39, 2-((1-(4-(tert-butyl)piperidine-1-carbonyl)cyclopentyl)amino) thiazole-4-carbonitrile]
  IC50: 1080 nM

## CC(C)(C)C1CCN(C(=O)C2(Nc3ncc(C#N)s3)CCCC2)CC1 [Compound 40, 2-((1-(4-(tert-butyl)piperidine-1-carbonyl)cyclopentyl)amino)thiazole-5-carbonitrile]
  IC50: 950 nM

## CC(C)(C)C1CCN(C(=O)C2(Nc3nc(C#N)co3)CCCC2)CC1 [Compound 41, 2-((1-(4-(tert-butyl)piperidine-1-carbonyl)cyclopentyl)amino) oxazole-4-carbonitrile]
  IC50: 3070 nM
